Each structure is given as a SMILES string.

This test concerns 697 B-cell NF-kB luciferase reporter, PMA/ionomycin, 16 h. Put plainly: inhibitors of antigen receptor-driven NF-kB signaling, SAR follow-up, B-cell specific, 697 cells, luminescence, set 2 (AID 504508).

A word on the IC50: it is the point on the concentration scale where inhibition reaches its midpoint. As for `CCOc1ccc(-c2nc(CSCC(N)=O)c(C)o2)cc1`, the IC50 was 80 nM.

As to `CCCOc1ccc(-c2nc(CSCC(=O)NCc3ccco3)c(C)o2)cc1`, the IC50 is 90 nM. Consider `CCCCOc1ccc(-c2nc(CSCC(=O)O)c(C)o2)cc1`, for which the IC50 is 80 nM. As to `CCOc1ccc(-c2nc(CSCC(=O)O)c(C)o2)cc1`, the IC50 is 50 nM.

`C#CCNC(=O)CSCc1nc(-c2ccc(OCC)cc2)oc1C`: the IC50 was 60 nM. On to `CCCOc1ccc(-c2nc(CSCC(=O)NC3CC3)c(C)o2)cc1`, for which the IC50 is 90 nM. On to `Cc1oc(-c2ccc(OC(F)(F)F)cc2)nc1CSCC(=O)O`, for which the IC50 is 190 nM.

Turning to `CCCOc1ccc(-c2nc(CSCC(=O)O)c(C)o2)cc1`, the IC50 was 40 nM. For the molecule `CCCCc1ccc(-c2noc(CCC(=O)NC)n2)cc1`, the IC50 was 110 nM. The result for `CC(C)c1ccc(-c2noc(CCC(=O)NC3CC3)n2)cc1` reads 250 nM; that for `CCCCc1ccc(-c2noc(CCC(=O)NCC)n2)cc1`, 130 nM.

For the origin of these results see PubChem BioAssay AID504508 (Sanford-Burnham Center for Chemical Genomics, 2011).
